From patent US20240368150A1 (Hoffmann-La Roche Inc., priority 2021, published 2024)
Read-outs that look alike come from different tables or passages of the source.

What was measured:
hDGKalpha(1-735)-N-His = hDGKalpha(1-735)-N-His (Homo sapiens (Human), UniProt P23743); assay: DGKalpha ADP Glo assay (in vitro DGK inhibition); format: biochemical; settings: DLG 125 uM, ATP 25 μM, DGK α 4 nM, 1 hour reaction
Procedure: (§1) DGK α and ζ kinase use ATP to phosphorylate the substrate 1,2-dilauroyl-sn-glycerol (DLG, incorporated in the liposomes). ATP is converted to ADP as a result of this enzymatic reaction. After the kinase reaction, an ATP-depletion reagent is added to terminate the kinase reaction and deplete any remaining ATP, leaving only ADP. Second, a detection reagent is added to simultaneously convert ADP to ATP and allow the newly synthesized ATP to be converted to light using a coupled luciferase/luciferin reaction.
(§2) Purification of both enzymes was performed as previously described by Takahashi et al., PeerJ, 2018 (Takahashi, D.; Sakane, F. Expression and purification of human diacylglycerol kinase alpha from baculovirus-infected insect cells for structural studies. PeerJ 2018, 6, No. e5449).
(§3) A concentrated liposome solution was prepared in assay buffer without DTT and BSA: 2 mM of DLG in 21 mM of total liposome (2 mM DLG/8 mM PS/11 mM PC). […] The reactions were started by addition of DGK α and ζ kinases at 4 nM and 2 nM final concentrations, respectively. After 1 hour reaction, the amount of ADP formed was detected with the ADP-Glo kinase assay (Promega) according to the manufacturer instructions. Compounds were added in 11-points dose response, starting at […], 1:3 dilutions, with a final DMSO concentration of 2%. The multidrop combi was used as a liquid handler and luminescence was read with 0.5 s by the envision reader (PE).

hDGKzeta(1-928)-N-His = hDGKzeta(1-928)-N-His (Homo sapiens (Human), UniProt Q13574); assay: DGKzeta ADP Glo assay (in vitro DGK inhibition); format: biochemical; settings: DLG 125 uM, ATP 50 μM, DGK ζ 2 nM, 1 hour reaction
Procedure: as §1, §2, §3

primary human T-cells [1] = assay: Proliferation assay after 5 days (CellTiter-Glo, CD3 stimulation; PBS counter screen); format: cell-based; settings: Homo sapiens, T-cell, 120 h, CD3 stimulation; for Emax: 5 days, normalized to reference compound A1 as stimulator control = 100%, DMSO neutral control, read-out: Emax proliferation (% activation); for EC50: primary human T-cells, CellTiter-Glo after 5 days, EC50 of fitted sigmoidal curve, read-out: Tcell Proliferation CD3 EC50
Procedure, shortened: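 Compounds were added to medium-only plates, and proliferation was read 5 days later as luminescence from CellTiter-Glo 2.0, whose ATP signal is proportional to cell number. Plates and reagent were equilibrated to room temperature for 45 min before an equal volume of reagent was added, with 15 min rocking.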

primary human T-cells [2] = tested on: primary human T-cells

Sequence of hDGKalpha(1-735)-N-His (P23743 whole entry): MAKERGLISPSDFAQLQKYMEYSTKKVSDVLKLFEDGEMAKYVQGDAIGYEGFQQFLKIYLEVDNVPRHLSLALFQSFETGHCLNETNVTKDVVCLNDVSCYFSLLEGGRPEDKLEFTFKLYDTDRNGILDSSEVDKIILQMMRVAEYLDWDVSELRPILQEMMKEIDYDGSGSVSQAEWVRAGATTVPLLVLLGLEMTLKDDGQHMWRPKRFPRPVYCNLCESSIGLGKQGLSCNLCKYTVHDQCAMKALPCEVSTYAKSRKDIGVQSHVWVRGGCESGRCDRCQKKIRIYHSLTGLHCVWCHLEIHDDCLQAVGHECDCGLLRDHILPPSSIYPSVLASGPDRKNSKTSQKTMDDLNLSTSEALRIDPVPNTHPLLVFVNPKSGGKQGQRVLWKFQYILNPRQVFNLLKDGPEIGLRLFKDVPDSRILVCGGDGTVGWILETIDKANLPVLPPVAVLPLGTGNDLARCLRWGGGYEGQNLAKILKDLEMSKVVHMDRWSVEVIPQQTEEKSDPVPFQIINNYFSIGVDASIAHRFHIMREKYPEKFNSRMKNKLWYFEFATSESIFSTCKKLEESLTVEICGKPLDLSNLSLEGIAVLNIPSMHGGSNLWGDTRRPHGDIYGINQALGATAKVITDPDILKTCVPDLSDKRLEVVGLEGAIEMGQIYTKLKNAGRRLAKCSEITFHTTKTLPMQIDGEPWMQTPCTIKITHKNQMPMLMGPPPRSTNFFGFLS
Sequence of hDGKzeta(1-928)-N-His (Q13574 whole entry): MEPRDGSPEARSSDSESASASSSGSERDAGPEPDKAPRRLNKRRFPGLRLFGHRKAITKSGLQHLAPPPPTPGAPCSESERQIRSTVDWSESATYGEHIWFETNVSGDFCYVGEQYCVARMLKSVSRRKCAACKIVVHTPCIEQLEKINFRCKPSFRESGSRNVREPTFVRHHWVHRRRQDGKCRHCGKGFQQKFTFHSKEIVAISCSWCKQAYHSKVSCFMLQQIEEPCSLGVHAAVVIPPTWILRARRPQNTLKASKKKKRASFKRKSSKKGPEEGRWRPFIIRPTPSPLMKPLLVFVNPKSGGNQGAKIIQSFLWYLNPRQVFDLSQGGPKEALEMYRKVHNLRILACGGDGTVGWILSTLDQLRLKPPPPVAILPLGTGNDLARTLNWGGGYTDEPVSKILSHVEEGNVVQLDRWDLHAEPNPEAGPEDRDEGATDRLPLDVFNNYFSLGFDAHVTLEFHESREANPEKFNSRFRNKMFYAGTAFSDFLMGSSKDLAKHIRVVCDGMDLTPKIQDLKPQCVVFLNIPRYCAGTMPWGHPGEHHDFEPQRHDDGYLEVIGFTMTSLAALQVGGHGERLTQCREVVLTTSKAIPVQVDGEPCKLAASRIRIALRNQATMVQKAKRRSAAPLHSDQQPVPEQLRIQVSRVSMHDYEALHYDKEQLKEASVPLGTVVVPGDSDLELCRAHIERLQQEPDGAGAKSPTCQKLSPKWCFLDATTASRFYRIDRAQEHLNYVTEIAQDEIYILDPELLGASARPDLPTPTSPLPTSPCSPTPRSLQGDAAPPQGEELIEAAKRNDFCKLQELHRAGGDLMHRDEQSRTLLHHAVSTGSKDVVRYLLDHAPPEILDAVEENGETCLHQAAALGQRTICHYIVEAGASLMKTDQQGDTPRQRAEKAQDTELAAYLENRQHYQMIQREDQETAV

| SMILES | IC50 (hDGKalpha(1-735)-N-His) | IC50 (hDGKzeta(1-928)-N-His) | EC50 (primary human T-cells [2]) | Emax (primary human T-cells [1]) | EC50 (primary human T-cells [1]) |
| --- | --- | --- | --- | --- | --- |
| Cc1cc(S(C)(=O)=O)ccc1-c1nc(-c2cc3c(cc2F)S(=O)(=O)C[C@H](N)C(=O)N3Cc2ccc(Cl)cc2)no1 [Example 314, (3R)-3-amino-5-[(4-chlorophenyl)methyl]-8-fluoro-7-[5-(2-methyl-4-methylsulfonyl-phenyl)-1,2,4-oxadiazol-3-yl]-1,1-dioxo-2,3-dihydro-1λ^6,5-benzothiazepin-4-one] | 6150 nM | 150 nM | 234 nM | 78% | 155 nM |
| COC(=O)N1CCC(c2nc(-c3cc4c(cc3F)S(=O)(=O)C[C@H](N)C(=O)N4Cc3ccc(OC4CCCC4)cc3)no2)C1 (stereo partly drawn) [Example 348, methyl 3-[3-[(3R)-3-amino-5-[[4-(cyclopentoxy)phenyl]methyl]-8-fluoro-1,1,4-trioxo-2,3-dihydro-1λ^6,5-benzothiazepin-7-yl]-1,2,4-oxadiazol-5-yl]pyrrolidine-1-carboxylate] | 2660 nM | 374 nM | 1710 nM | 141% | 662 nM |
| CC(C)(C)c1nc(-c2cc3c(cc2F)S(=O)(=O)C[C@H](N)C(=O)N3Cc2ccc(OC3CCCC3)cc2)no1 [Example 350, (3R)-3-amino-7-(5-tert-butyl-1,2,4-oxadiazol-3-yl)-5-[[4-(cyclopentoxy)phenyl]methyl]-8-fluoro-1,1-dioxo-2,3-dihydro-1λ^6,5-benzothiazepin-4-one] | 1610 nM | 235 nM | 312 nM | 256% | 208 nM |
| CC(C)(C)c1nc(-c2cc3c(cc2F)S(=O)(=O)C[C@H](N)C(=O)N3Cc2ccc(F)cc2)no1 [Example 357, (3R)-3-amino-7-(5-tert-butyl-1,2,4-oxadiazol-3-yl)-8-fluoro-5-[(4-fluorophenyl)methyl]-1,1-dioxo-2,3-dihydro-1λ^6,5-benzothiazepin-4-one] | 403 nM | 114 nM | 3000 nM | 386% | 1140 nM |

More lines, main results first:

| IC50 (hDGKalpha(1-735)-N-His) | IC50 (hDGKzeta(1-928)-N-His) | EC50 (primary human T-cells [2]) | SMILES | Emax (primary human T-cells [1]) | EC50 (primary human T-cells [1]) |
| --- | --- | --- | --- | --- | --- |
| 1400 nM | 644 nM | 1160 nM | N[C@H]1CS(=O)(=O)c2ccc(-c3nnc(C4CCCC(F)(F)C4)o3)cc2N(Cc2ccc(Cl)cc2)C1=O (stereo partly drawn) [Example 373, (3R)-3-amino-5-[(4-chlorophenyl)methyl]-7-[5-(3,3-difluorocyclohexyl)-1,3,4-oxadiazol-2-yl]-1,1-dioxo-2,3-dihydro-1λ^6,5-benzothiazepin-4-one] | 100% | 556 nM |
| 42700 nM | 1300 nM | 2090 nM | Cc1cc(S(C)(=O)=O)ccc1-c1nnc(-c2ccc3c(c2)N(Cc2ccc(Cl)cc2)C(=O)[C@@H](N)CS3(=O)=O)o1 [Example 379, (3R)-3-amino-5-[(4-chlorophenyl)methyl]-7-[5-(2-methyl-4-methylsulfonyl-phenyl)-1,3,4-oxadiazol-2-yl]-1,1-dioxo-2,3-dihydro-1λ^6,5-benzothiazepin-4-one] | 69% | 4850 nM |
| 3570 nM | 778 nM | 4870 nM | COCCN1CCCC(F)(c2nnc(-c3ccc4c(c3)N(Cc3ccc(Cl)cc3)C(=O)[C@@H](N)CS4(=O)=O)o2)C1 (stereo partly drawn) [Example 386, (3R)-3-amino-5-[(4-chlorophenyl)methyl]-7-[5-[3-fluoro-1-(2-methoxyethyl)-3-piperidyl]-1,3,4-oxadiazol-2-yl]-1,1-dioxo-2,3-dihydro-1λ^6,5-benzothiazepin-4-one] | 108% | 2270 nM |
| 38500 nM | 2630 nM | > 10000 nM | Cc1ccc(-c2nnc(-c3ccc4c(c3)N(Cc3ccc(Cl)cc3)C(=O)[C@@H](N)CS4(=O)=O)o2)cn1 [Example 390, (3R)-3-amino-5-[(4-chlorophenyl)methyl]-7-[5-(6-methyl-3-pyridyl)-1,3,4-oxadiazol-2-yl]-1,1-dioxo-2,3-dihydro-1λ^6,5-benzothiazepin-4-one] | 69% | 4510 nM |
